In US20060229233A1, “Compositions and methods for treating neurological disorders” (ID Biomedical Corporation, priority 2004, published 2006):
Marks after values point to notes of the source that are not given here.

Columns and labels:
[1] = tested on: Tg2576 APP transgenic mice; test: EAE clinical score in PLP-immunized Tg2576 APP transgenic mice; assay type: in vivo; details: PLP immunization in CFA
Excerpt: In order to determine whether the effect was unique to MOG-induced EAE, EAE was induced with proteolipid protein (PLP) peptide (amino acids 139-151) in CFA. A 76% reduction of staining for Aβ fibrils was found and a 70% reduction in Aβ levels in animals with PLP induced EAE (p<0.02) (See Table 2, FIG. 3A). In order to induce EAE with PLP, Tg2576 mice as described by Hsiao, K. et al., Science 274 (5284):99-102 (1996) were utilized, which are on a B6/SJL background. Similar results were found with Tg2576 mice and J20 immunized mice described by Mucke et al., Ann NY Acad Sci (777) 82-88 (1996), to induce MOG-EAE (See Table 1). […] Of note, there was no difference in the total AS (amyloid) load in J20 mice greater than 13 months in age when compared to Tg2576 mice greater than 16 months of age.
Induction and clinical evaluation of EAE in APP+ mice. (B6D2)F1 or (B6XSJL)F1 APP+ (WT or B-cell deficient μMT) and non-tg littermates were immunized in the hind footpads with 100 μg MOG(35-55), PLP 139-151 or 100 μg β-amyloid peptide (1-40) in CFA. […] Animals were monitored for symptoms of EAE beginning 7 days after immunization and scored as follows: 0, no disease; 1, tail paralysis; 2, hind limb weakness; 3, hind limb paralysis; 4, hind limb plus forelimb paralysis; and 5, moribund.

Aβ = test: Anti-Aβ antibody level (IgG, OD 450) in Tg2576 APP transgenic mice; assay type: in vivo
Method: Antibody levels were measured against Aβ in animals immunized with MOG or PLP to determine if there was cross reactivity with Aβ and Aβ antibody titers as compared to those from animals immunized with Aβ. […] To definitively establish that antibodies were not playing a role, 16-month-old J20 mice bred to μMT B-cell deficient mice were immunized with MOG 35-55 in CFA followed by administration of Pertussis toxin.

Aβ40 and Aβ42 = test: Total brain Aβ by ELISA, Tg2576 APP transgenic mice; assay type: in vivo
Excerpt: (§1) In order to determine whether the effect was unique to MOG-induced EAE, EAE was induced with proteolipid protein (PLP) peptide (amino acids 139-151) in CFA. A 76% reduction of staining for Aβ fibrils was found and a 70% reduction in Aβ levels in animals with PLP induced EAE (p<0.02) (See Table 2, FIG. 3A). In order to induce EAE with PLP, Tg2576 mice as described by Hsiao, K. et al., Science 274 (5284):99-102 (1996) were utilized, which are on a B6/SJL background. Similar results were found with Tg2576 mice and J20 immunized mice described by Mucke et al., Ann NY Acad Sci (777) 82-88 (1996), to induce MOG-EAE (See Table 1). […]
(§2) Amyloid quantification. To quantify amyloid burden, the right hemisphere was extracted in 5.0 M guanidinium-chloride (pH 8) for 3 hours at room temperature. […] Brains were frozen in the presence of OCT paraformaldehyde, cut to 14-μm longitudinal sections used for immunohistological staining and amyloid fibril quantification. Well-defined hippocampal regions (Bregma −1.34), were selected for quantification of the amount of amyloid fibril in plaques using thioflavin-S staining. Images (magnification ×20) from these sections were collected from a 3CCD color video camera and analyzed with appropriate software (NIH; Imaging Research). The amount of amyloid fibril was expressed as a percentage per mm^2 hippocampal region as measured by the software.

Aβ fibrils = test: Thioflavin-S quantification of Aβ fibrils in hippocampus, Tg2576 APP transgenic mice; assay type: in vivo
Excerpt: as §1, §2

activated microglia = test: Microglia activation (CD11b staining) in PLP-immunized animals; assay type: in vivo, mice; details: PLP immunization; p<0.001
[2] = PLP immunization in CFA, Tg2576 APP transgenic mice

## proteolipid protein (PLP) peptide (amino acids 139-151) (CHCLGKWLGHPDK; UniProt P60202 139-151, looked up, fragment)
[1]
  EAE score: 1.7 ± 0.7
Aβ; PLP immunization
  anti-Aβ antibodies: not detected
Aβ; level of OD 450 at titer of 1:500 IgG, Tg2576 APP transgenic mice
  Anti-Aβ Antibody: 0 OD 450
Aβ40 and Aβ42; [2]
  Total brain Aβ: 47.7 ± 18.4 ^a ng/ml
Aβ40 and Aβ42; PLP induced EAE, Tg2576 mice
  reduction in Aβ levels: 70%
Aβ fibrils; [2]
  % Area of thioflavin positive Aβ plaques (hippocampus): 0.68 ± 0.2 ^b %
Aβ fibrils; PLP induced EAE, Tg2576 mice
  reduction of staining for Aβ fibrils: 76%
Activated microglia
  microglia activation: increased levels of microglia activation
